In ChEMBL document CHEMBL3885881, “DrugMatrix”:

Organism: Rattus norvegicus
Assay: DrugMatrix - Regimen: Daily Repeat
Format: toxicity, organism-based, Sprague-Dawley
Parameters: regimen Daily Repeat, gender Male, age 6-8 weeks
Conditions: in vivo, po, route oral GAVAGE, vehicle .5 % CMC; for ALANINE AMINOTRANSFERASE / ALBUMIN / ALKALINE PHOSPHATASE / ASPARTATE AMINOTRANSFERASE / BLOOD UREA NITROGEN / CHLORIDE / CHOLESTEROL / CREATINE PHOSPHOKINASE / CREATININE / GLUCOSE / LACTATE DEHYDROGENASE / LIPASE / PHOSPHORUS / POTASSIUM / SODIUM / TOTAL BILIRUBIN / TOTAL PROTEIN / URIC ACID: tissue Plasma
[1] = 0.0007 mg/kg, 2184 h, tissue Blood, dose level Low, time 91 day
[2] = 0.0007 mg/kg, 2184 h, dose level Low, time 91 day
[3] = 0.0007 mg/kg, […], tissue Blood, dose level Low, time 28 day
[4] = 0.0007 mg/kg, […], dose level Low, time 28 day
[5] = 0.001 mg/kg, 72 h, tissue Blood, dose level M1, time 3 day
[6] = 0.001 mg/kg, 72 h, dose level M1, time 3 day
[7] = 0.001 mg/kg, 120 h, tissue Blood, dose level M1, time 5 day
[8] = 0.001 mg/kg, 120 h, dose level M1, time 5 day
[9] = 0.02 mg/kg, 72 h, tissue Blood, dose level High, time 3 day
[10] = 0.02 mg/kg, 72 h, dose level High, time 3 day
[11] = 0.02 mg/kg, 120 h, tissue Blood, dose level High, time 5 day
[12] = 0.02 mg/kg, 120 h, dose level High, time 5 day

Clc1cc2c(cc1Cl)Oc1cc(Cl)c(Cl)cc1O2 [2,3,7,8-TETRACHLORODIBENZO-P-DIOXIN]
EOSINOPHIL [1]: 1.12% | ERYTHROCYTE COUNT [1]: 9.38 x10E6/uL | HEMATOCRIT [1]: 50.34% | HEMOGLOBIN [1]: 16.79 G/DL | LEUKOCYTE COUNT [1]: 13.03 x10E3/uL | LYMPHOCYTE [1]: 77.67% | MEAN CORPUSCULAR HEMOGLOBIN [1]: 17.96 pg | MEAN CORPUSCULAR HEMOGLOBIN CONCENTRATION [1]: 33.34 G/DL | MEAN CORPUSCULAR VOLUME [1]: 53.81 fL | MONOCYTE [1]: 2.14% | NEUTROPHIL [1]: 16.55% | PLATELET COUNT [1]: 1320.7 x10E3/uL | ALANINE AMINOTRANSFERASE [2]: 26.9 u/L | ALBUMIN [2]: 3.75 G/DL | ALKALINE PHOSPHATASE [2]: 85.3 u/L | ASPARTATE AMINOTRANSFERASE [2]: 64.6 u/L | BLOOD UREA NITROGEN [2]: 14.9 mg/dL | CHLORIDE [2]: 103.1 MEQ/L | CHOLESTEROL [2]: 55.9 mg/dL | CREATINE PHOSPHOKINASE [2]: 76.1 u/L | CREATININE [2]: 0.51 mg/dL | GLUCOSE [2]: 150.6 mg/dL | LACTATE DEHYDROGENASE [2]: 36.1 u/L | LIPASE [2]: 15.1 u/L | PHOSPHORUS [2]: 7.88 mg/dL | POTASSIUM [2]: 6.11 MEQ/L | SODIUM [2]: 151 MEQ/L | TOTAL BILIRUBIN [2]: 0.2 mg/dL | TOTAL PROTEIN [2]: 7.13 G/DL | URIC ACID [2]: 0.79 mg/dL | ABSOLUTE BASOPHIL [3]: 72 cells/µL | ABSOLUTE EOSINOPHIL [3]: 54 cells/µL | ABSOLUTE LYMPHOCYTE [3]: 9720 cells/µL | ABSOLUTE MONOCYTE [3]: 220 cells/µL | ABSOLUTE SEGMENTED NEUTROPHIL [3]: 1340 cells/µL | BASOPHIL [3]: 0.62% | EOSINOPHIL [3]: 0.5% | ERYTHROCYTE COUNT [3]: 8.2 x10E6/uL | HEMATOCRIT [3]: 46.2% | HEMOGLOBIN [3]: 15.3 G/DL | LEUKOCYTE COUNT [3]: 11.47 x10E3/uL | LYMPHOCYTE [3]: 84.6% | MEAN CORPUSCULAR HEMOGLOBIN [3]: 18.64 pg | MEAN CORPUSCULAR HEMOGLOBIN CONCENTRATION [3]: 33.1 G/DL | MEAN CORPUSCULAR VOLUME [3]: 56.34 fL | MONOCYTE [3]: 1.94% | NEUTROPHIL [3]: 11.78% | PLATELET COUNT [3]: 1311.4 x10E3/uL | ALANINE AMINOTRANSFERASE [4]: 24.8 u/L | ALBUMIN [4]: 3.58 G/DL | ALKALINE PHOSPHATASE [4]: 148 u/L | ASPARTATE AMINOTRANSFERASE [4]: 65.4 u/L | BLOOD UREA NITROGEN [4]: 10.6 mg/dL | CHLORIDE [4]: 104 MEQ/L | CHOLESTEROL [4]: 54.8 mg/dL | CREATINE PHOSPHOKINASE [4]: 83.2 u/L | CREATININE [4]: 0.44 mg/dL | GLUCOSE [4]: 147.6 mg/dL | LACTATE DEHYDROGENASE [4]: 39.8 u/L | LIPASE [4]: 39.2 u/L | PHOSPHORUS [4]: 9.54 mg/dL | POTASSIUM [4]: 5.96 MEQ/L | SODIUM [4]: 151.6 MEQ/L | TOTAL BILIRUBIN [4]: 0.2 mg/dL | TOTAL PROTEIN [4]: 6.34 G/DL | URIC ACID [4]: 0.22 mg/dL | BASOPHIL [5]: 0.47% | EOSINOPHIL [5]: 0.5% | ERYTHROCYTE COUNT [5]: 7.09 x10E6/uL | HEMATOCRIT [5]: 44.53% | HEMOGLOBIN [5]: 14.13 G/DL | LEUKOCYTE COUNT [5]: 11.43 x10E3/uL | LYMPHOCYTE [5]: 82.93% | MEAN CORPUSCULAR HEMOGLOBIN [5]: 20 pg | MEAN CORPUSCULAR HEMOGLOBIN CONCENTRATION [5]: 31.8 G/DL | MEAN CORPUSCULAR VOLUME [5]: 62.87 fL | MONOCYTE [5]: 2.37% | NEUTROPHIL [5]: 12.8% | PLATELET COUNT [5]: 1540.67 x10E3/uL | ALANINE AMINOTRANSFERASE [6]: 38.33 u/L | ALBUMIN [6]: 3.6 G/DL | ALKALINE PHOSPHATASE [6]: 343.33 u/L | ASPARTATE AMINOTRANSFERASE [6]: 60 u/L | BLOOD UREA NITROGEN [6]: 12 mg/dL | CHLORIDE [6]: 103 MEQ/L | CHOLESTEROL [6]: 88.33 mg/dL | CREATINE PHOSPHOKINASE [6]: 181.33 u/L | CREATININE [6]: 0.4 mg/dL | GLUCOSE [6]: 183.67 mg/dL | PHOSPHORUS [6]: 13.1 mg/dL | POTASSIUM [6]: 6.53 MEQ/L | SODIUM [6]: 148.33 MEQ/L | TOTAL BILIRUBIN [6]: 0.33 mg/dL | TOTAL PROTEIN [6]: 5.93 G/DL | BASOPHIL [7]: 0.47% | EOSINOPHIL [7]: 0.23% | ERYTHROCYTE COUNT [7]: 7.01 x10E6/uL | HEMATOCRIT [7]: 45.3% | HEMOGLOBIN [7]: 14.33 G/DL | LEUKOCYTE COUNT [7]: 13.09 x10E3/uL | LYMPHOCYTE [7]: 85.1% | MEAN CORPUSCULAR HEMOGLOBIN [7]: 20.47 pg | MEAN CORPUSCULAR HEMOGLOBIN CONCENTRATION [7]: 31.6 G/DL | MEAN CORPUSCULAR VOLUME [7]: 64.6 fL | MONOCYTE [7]: 2.03% | NEUTROPHIL [7]: 11.33% | PLATELET COUNT [7]: 977.33 x10E3/uL | ALANINE AMINOTRANSFERASE [8]: 39.33 u/L | ALBUMIN [8]: 3.63 G/DL | ALKALINE PHOSPHATASE [8]: 300 u/L | ASPARTATE AMINOTRANSFERASE [8]: 62.33 u/L | BLOOD UREA NITROGEN [8]: 12.33 mg/dL | CHLORIDE [8]: 101.67 MEQ/L | CHOLESTEROL [8]: 84.33 mg/dL | CREATINE PHOSPHOKINASE [8]: 173.33 u/L | CREATININE [8]: 0.43 mg/dL | GLUCOSE [8]: 173.33 mg/dL | PHOSPHORUS [8]: 12.97 mg/dL | POTASSIUM [8]: 6.93 MEQ/L | SODIUM [8]: 149.33 MEQ/L | TOTAL BILIRUBIN [8]: 0.5 mg/dL | TOTAL PROTEIN [8]: 6.07 G/DL | BASOPHIL [9]: 0.37% | EOSINOPHIL [9]: 0.47% | ERYTHROCYTE COUNT [9]: 6.77 x10E6/uL | HEMATOCRIT [9]: 41.33% | HEMOGLOBIN [9]: 12.93 G/DL | LEUKOCYTE COUNT [9]: 11.64 x10E3/uL | LYMPHOCYTE [9]: 80.13% | MEAN CORPUSCULAR HEMOGLOBIN [9]: 19.13 pg | MEAN CORPUSCULAR HEMOGLOBIN CONCENTRATION [9]: 31.33 G/DL | MEAN CORPUSCULAR VOLUME [9]: 61.07 fL | MONOCYTE [9]: 2.43% | NEUTROPHIL [9]: 15.43% | PLATELET COUNT [9]: 1395 x10E3/uL | ALANINE AMINOTRANSFERASE [10]: 38.67 u/L | ALBUMIN [10]: 3.43 G/DL | ALKALINE PHOSPHATASE [10]: 312.67 u/L | ASPARTATE AMINOTRANSFERASE [10]: 58.67 u/L | BLOOD UREA NITROGEN [10]: 10.67 mg/dL | CHLORIDE [10]: 103.33 MEQ/L | CHOLESTEROL [10]: 75 mg/dL | CREATINE PHOSPHOKINASE [10]: 168.33 u/L | CREATININE [10]: 0.3 mg/dL | GLUCOSE [10]: 187.33 mg/dL | PHOSPHORUS [10]: 12.63 mg/dL | POTASSIUM [10]: 7.03 MEQ/L | SODIUM [10]: 147 MEQ/L | TOTAL BILIRUBIN [10]: 0.27 mg/dL | TOTAL PROTEIN [10]: 5.57 G/DL | BASOPHIL [11]: 0.5% | EOSINOPHIL [11]: 0.27% | ERYTHROCYTE COUNT [11]: 7.05 x10E6/uL | HEMATOCRIT [11]: 43.57% | HEMOGLOBIN [11]: 13.87 G/DL | LEUKOCYTE COUNT [11]: 16.09 x10E3/uL | LYMPHOCYTE [11]: 87.33% | MEAN CORPUSCULAR HEMOGLOBIN [11]: 19.67 pg | MEAN CORPUSCULAR HEMOGLOBIN CONCENTRATION [11]: 31.8 G/DL | MEAN CORPUSCULAR VOLUME [11]: 61.9 fL | MONOCYTE [11]: 1.77% | NEUTROPHIL [11]: 8.93% | PLATELET COUNT [11]: 1151.33 x10E3/uL | ALANINE AMINOTRANSFERASE [12]: 46 u/L | ALBUMIN [12]: 3.5 G/DL | ALKALINE PHOSPHATASE [12]: 413.67 u/L | ASPARTATE AMINOTRANSFERASE [12]: 68 u/L | BLOOD UREA NITROGEN [12]: 12 mg/dL | CHLORIDE [12]: 102.33 MEQ/L | CHOLESTEROL [12]: 85.67 mg/dL | CREATINE PHOSPHOKINASE [12]: 209.67 u/L | CREATININE [12]: 0.4 mg/dL | GLUCOSE [12]: 184.33 mg/dL | PHOSPHORUS [12]: 12.77 mg/dL | POTASSIUM [12]: 6.53 MEQ/L | SODIUM [12]: 148.67 MEQ/L | TOTAL BILIRUBIN [12]: 0.4 mg/dL | TOTAL PROTEIN [12]: 5.8 G/DL
